Experimental data taken from ChEMBL document CHEMBL1201862, “PubChem BioAssay data set” (2004).
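Compound exposure: 48 hours, 5 concentrations, 96-well plates. GI50 marks 50% less growth.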 The source made the active and inactive calls. Rule as the data show it: active = GI50 up to about 1.1 µM and inactive = higher.

How the values were obtained:
Experiment in all cases: NCI anticancer screen, dose series, 48 h
DMS-114 = system: DMS-114
SN12C = system: SN12C
CAKI-1 = system: CAKI-1
M14 = system: M14
XF498 = system: XF498
TK-10 = system: TK-10
HCT-15 = system: HCT-15
NCI-H23 = system: NCI-H23
SW-620 = system: SW-620
LXFL 529 = system: LXFL 529
SF-268 = system: SF-268
DLD-1 = system: DLD-1
UACC-62 = system: UACC-62
CCRF-CEM = system: CCRF-CEM
Malme-3M = system: Malme-3M
HOP-62 = system: HOP-62
MOLT-4 = system: MOLT-4
SK-MEL-28 = system: SK-MEL-28
HT-29 = system: HT-29
SNB-19 = system: SNB-19
SNB-78 = system: SNB-78
EKVX = system: EKVX
M19-MEL = system: M19-MEL
COLO 205 = system: COLO 205
DMS-273 = system: DMS-273
HCC 2998 = system: HCC 2998
RXF 393 = system: RXF 393
SK-MEL-2 = system: SK-MEL-2
ACHN = system: ACHN
SF-539 = system: SF-539
IGROV-1 = system: IGROV-1
OVCAR-4 = system: OVCAR-4
HL-60 = system: HL-60
KM-20L2 = system: KM-20L2
SR = system: SR
SNB-75 = system: SNB-75
SK-OV-3 = system: SK-OV-3
A498 = system: A498
HOP-92 = system: HOP-92
SK-MEL-5 = system: SK-MEL-5
OVCAR-5 = system: OVCAR-5
A549 = system: A549
KM12 = system: KM12
OVCAR-3 = system: OVCAR-3
K562 = system: K562
UACC-257 = system: UACC-257
U-251 = system: U-251
OVCAR-8 = system: OVCAR-8
UO-31 = system: UO-31
SF-295 = system: SF-295
HCT-116 = system: HCT-116
NCI-H522 = system: NCI-H522
RPMI-8226 = system: RPMI-8226
786-0 = system: 786-0
NCI-H460 = system: NCI-H460
NCI-H226 = system: NCI-H226
LOX IMVI = system: LOX IMVI

CCCCCCCCC[C@@H]1C[C@H](O)[C@H](Cc2ccccc2)N1C(=O)OC(C)(C)C
GI50 (DMS-114): 16.9 µM (inactive)
GI50 (SN12C): 16.7 µM (inactive)
GI50 (CAKI-1): 21.9 µM (inactive)
GI50 (M14): 22.6 µM (inactive)
GI50 (XF498): 22.2 µM (inactive)
GI50 (TK-10): 15.5 µM (inactive)
GI50 (HCT-15): 18.6 µM
GI50 (NCI-H23): 15.6 µM (inactive)
GI50 (SW-620): 20.1 µM (inactive)
GI50 (LXFL 529): 17.2 µM (inactive)
GI50 (SF-268): 18.7 µM (inactive)
GI50 (DLD-1): 18.3 µM (inactive)
GI50 (UACC-62): 17 µM (inactive)
GI50 (CCRF-CEM): 20.2 µM (inactive)
GI50 (Malme-3M): 20.1 µM (inactive)
GI50 (HOP-62): 19.9 µM (inactive)
GI50 (MOLT-4): 36.5 µM (inactive)
GI50 (SK-MEL-28): 19.7 µM (inactive)
GI50 (HT-29): 16.7 µM (inactive)
GI50 (SNB-19): 18.6 µM (inactive)
GI50 (SNB-78): 22.8 µM (inactive)
GI50 (EKVX): 14.4 µM (inactive)
GI50 (M19-MEL): 16.8 µM (inactive)
GI50 (COLO 205): 17 µM (inactive)
GI50 (DMS-273): 18.1 µM (inactive)
GI50 (HCC 2998): 14.4 µM (inactive)
GI50 (RXF 393): 17.7 µM (inactive)
GI50 (SK-MEL-2): 15.3 µM (inactive)
GI50 (ACHN): 17.1 µM (inactive)
GI50 (SF-539): 20.9 µM (inactive)
GI50 (IGROV-1): 18.6 µM (inactive)
GI50 (OVCAR-4): 17.7 µM (inactive)
GI50 (HL-60): 22.9 µM (inactive)
GI50 (KM-20L2): 17.1 µM (inactive)
GI50 (SR): 18.2 µM (inactive)
GI50 (SNB-75): 21.9 µM (inactive)
GI50 (SK-OV-3): 19.6 µM (inactive)
GI50 (A498): 19.5 µM (inactive)
GI50 (HOP-92): 15 µM (inactive)
GI50 (SK-MEL-5): 19.1 µM (inactive)
GI50 (OVCAR-5): 15.1 µM (inactive)
GI50 (A549): 18 µM (inactive)
GI50 (KM12): 18.7 µM (inactive)
GI50 (OVCAR-3): 20.3 µM (inactive)
GI50 (K562): 37.4 µM (inactive)
GI50 (UACC-257): 15.8 µM (inactive)
GI50 (U-251): 16.1 µM (inactive)
GI50 (OVCAR-8): 17.5 µM (inactive)
GI50 (UO-31): 14.3 µM (inactive)
GI50 (SF-295): 15.8 µM (inactive)
GI50 (HCT-116): 17.9 µM (inactive)
GI50 (NCI-H522): 16.4 µM (inactive)
GI50 (RPMI-8226): 24.1 µM (inactive)

C[C@]12CC[C@H](O)CC1=CC[C@@H]1C2CC[C@]2(C)NC(=O)C(C#N)CC12 (stereo not given in full)
GI50 (DMS-114): > 100 µM (inactive)
GI50 (786-0): > 100 µM (inactive)
GI50 (CAKI-1): > 100 µM (inactive)
GI50 (M14): > 100 µM (inactive)
GI50 (XF498): > 100 µM (inactive)
GI50 (TK-10): > 100 µM (inactive)
GI50 (HCT-15): 37.8 µM
GI50 (NCI-H23): > 100 µM (inactive)
GI50 (SW-620): > 100 µM (inactive)
GI50 (LXFL 529): > 100 µM (inactive)
GI50 (DLD-1): > 100 µM (inactive)
GI50 (UACC-62): 15.7 µM (inactive)
GI50 (NCI-H460): > 100 µM (inactive)
GI50 (CCRF-CEM): > 100 µM (inactive)
GI50 (Malme-3M): > 100 µM (inactive)
GI50 (HOP-62): > 100 µM (inactive)
GI50 (MOLT-4): > 100 µM (inactive)
GI50 (SK-MEL-28): 66.8 µM (inactive)
GI50 (HT-29): > 100 µM (inactive)
GI50 (SNB-78): > 100 µM (inactive)
GI50 (EKVX): > 100 µM (inactive)
GI50 (M19-MEL): > 100 µM (inactive)
GI50 (DMS-273): > 100 µM (inactive)
GI50 (HCC 2998): > 100 µM (inactive)
GI50 (RXF 393): 55.1 µM (inactive)
GI50 (NCI-H226): > 100 µM (inactive)
GI50 (SK-MEL-2): > 100 µM (inactive)
GI50 (ACHN): 28.6 µM (inactive)
GI50 (SF-539): > 100 µM (inactive)
GI50 (IGROV-1): > 100 µM (inactive)
GI50 (OVCAR-4): > 100 µM (inactive)
GI50 (HL-60): > 100 µM (inactive)
GI50 (KM-20L2): > 100 µM (inactive)
GI50 (SNB-75): 51.4 µM (inactive)
GI50 (SK-OV-3): > 100 µM (inactive)
GI50 (A498): > 100 µM (inactive)
GI50 (SK-MEL-5): > 100 µM (inactive)
GI50 (OVCAR-5): > 100 µM (inactive)
GI50 (A549): > 100 µM (inactive)
GI50 (KM12): > 100 µM (inactive)
GI50 (OVCAR-3): > 100 µM (inactive)
GI50 (K562): 6.89 µM (inactive)
GI50 (UACC-257): > 100 µM (inactive)
GI50 (U-251): > 100 µM (inactive)
GI50 (OVCAR-8): > 100 µM (inactive)
GI50 (UO-31): > 100 µM (inactive)
GI50 (SF-295): 12.8 µM (inactive)
GI50 (HCT-116): > 100 µM (inactive)
GI50 (RPMI-8226): > 100 µM (inactive)

O=c1n(CCCCn2c(=O)n(CC3CS3)c3ccccc32)c2ccccc2n1CC1CS1 (stereo not given)
GI50 (DMS-114): > 10 µM (inactive)
GI50 (SN12C): 14.1 µM (inactive)
GI50 (CAKI-1): 17.3 µM (inactive)
GI50 (M14): 8.99 µM (inactive)
GI50 (XF498): 6.56 µM (inactive)
GI50 (HCT-15): 18.2 µM
GI50 (SW-620): 18.6 µM (inactive)
GI50 (LXFL 529): 14.3 µM (inactive)
GI50 (SF-268): 24.9 µM (inactive)
GI50 (UACC-62): > 10 µM (inactive)
GI50 (CCRF-CEM): 17.1 µM (inactive)
GI50 (Malme-3M): 10.5 µM (inactive)
GI50 (HOP-62): 22.3 µM (inactive)
GI50 (MOLT-4): 1.95 µM (inactive)
GI50 (LOX IMVI): 3.14 µM (inactive)
GI50 (EKVX): 24.3 µM (inactive)
GI50 (M19-MEL): 19.2 µM (inactive)
GI50 (COLO 205): 19 µM (inactive)
GI50 (DMS-273): 19.2 µM (inactive)
GI50 (HCC 2998): 19.7 µM (inactive)
GI50 (SK-MEL-2): 11.9 µM (inactive)
GI50 (ACHN): 25.1 µM (inactive)
GI50 (IGROV-1): 13.5 µM (inactive)
GI50 (OVCAR-4): 15.5 µM (inactive)
GI50 (HL-60): 2.17 µM (inactive)
GI50 (SR): 3.87 µM (inactive)
GI50 (SNB-75): 26.1 µM (inactive)
GI50 (SK-OV-3): 58.1 µM (inactive)
GI50 (HOP-92): 23.9 µM (inactive)
GI50 (KM12): 11.4 µM (inactive)
GI50 (OVCAR-3): 10.4 µM (inactive)
GI50 (K562): 15.7 µM (inactive)
GI50 (HCT-116): 18.7 µM (inactive)
GI50 (NCI-H522): 16.6 µM (inactive)
GI50 (RPMI-8226): 10.9 µM (inactive)

Brc1ccc(C2CC(c3cccc4ccccc34)=Nc3ccccc3S2)cc1 (stereo not given)
GI50 (SN12C): > 100 µM (inactive)
GI50 (CAKI-1): > 100 µM (inactive)
GI50 (M14): > 100 µM (inactive)
GI50 (XF498): > 100 µM (inactive)
GI50 (TK-10): > 100 µM (inactive)
GI50 (HCT-15): 35.3 µM
GI50 (NCI-H23): 86.5 µM (inactive)
GI50 (SW-620): 16.7 µM (inactive)
GI50 (LXFL 529): > 100 µM (inactive)
GI50 (SF-268): > 100 µM (inactive)
GI50 (DLD-1): 51.8 µM (inactive)
GI50 (UACC-62): 71.9 µM (inactive)
GI50 (NCI-H460): > 100 µM (inactive)
GI50 (CCRF-CEM): 29 µM (inactive)
GI50 (HOP-62): > 100 µM (inactive)
GI50 (MOLT-4): 23.5 µM (inactive)
GI50 (SK-MEL-28): > 100 µM (inactive)
GI50 (LOX IMVI): 44.8 µM (inactive)
GI50 (HT-29): 46.7 µM (inactive)
GI50 (SNB-19): > 100 µM (inactive)
GI50 (SNB-78): 82 µM (inactive)
GI50 (EKVX): 37.1 µM (inactive)
GI50 (M19-MEL): 40.2 µM (inactive)
GI50 (COLO 205): > 100 µM (inactive)
GI50 (DMS-273): 80 µM (inactive)
GI50 (HCC 2998): 30.4 µM (inactive)
GI50 (RXF 393): > 100 µM (inactive)
GI50 (NCI-H226): > 100 µM (inactive)
GI50 (SK-MEL-2): > 100 µM (inactive)
GI50 (ACHN): > 100 µM (inactive)
GI50 (SF-539): > 100 µM (inactive)
GI50 (IGROV-1): > 100 µM (inactive)
GI50 (OVCAR-4): 44.6 µM (inactive)
GI50 (HL-60): 26.4 µM (inactive)
GI50 (KM-20L2): 96.8 µM (inactive)
GI50 (SR): 27.5 µM (inactive)
GI50 (SNB-75): > 100 µM (inactive)
GI50 (SK-OV-3): > 100 µM (inactive)
GI50 (A498): > 100 µM (inactive)
GI50 (HOP-92): > 100 µM (inactive)
GI50 (SK-MEL-5): > 100 µM (inactive)
GI50 (OVCAR-5): > 100 µM (inactive)
GI50 (A549): > 100 µM (inactive)
GI50 (KM12): 70.5 µM (inactive)
GI50 (K562): 26.2 µM (inactive)
GI50 (UACC-257): > 100 µM (inactive)
GI50 (U-251): 30.2 µM (inactive)
GI50 (OVCAR-8): > 100 µM (inactive)
GI50 (UO-31): 54.3 µM (inactive)
GI50 (SF-295): 37.3 µM (inactive)
GI50 (HCT-116): 31.3 µM (inactive)
GI50 (NCI-H522): 22.5 µM (inactive)
GI50 (RPMI-8226): 10.9 µM (inactive)
